Results reported in patent US9247759B2, “Identification of human T2R receptors that respond to bitter compounds that elicit the bitter taste in compositions, and the use thereof in assays to identify compounds that inhibit (block) bitter taste in compositions and use thereof” (SENOMYX, INC., priority 2007, dated 2016).

Columns and labels:
hT2R64 = hT2R64 (Homo sapiens (Human), UniProt P59538); assay: hT2R panel inhibition, transient HEK293 G16g44, agonist Aristolochic Acid 1 μM; type: cell-based; settings: HEK293, compound at 25 μM; receptor activated to EC80 with the corresponding agonist; read-out: screening result against bitter receptor 64
In short: (§1)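 Receptor activity was measured in functional assays after single-receptor transient transfection; bitter agonists were used at their EC80 levels. A decrease in that activity when the test compound was added was taken as inhibition.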

hT2R5 = hT2R5 (Homo sapiens (Human), UniProt Q9NYW4); assay: hT2R panel inhibition, transient HEK293 G16g44, agonist Picoline 10 mM; type: cell-based; settings: HEK293, compound at 25 μM; receptor activated to EC80 with the corresponding agonist; read-out: screening result against bitter receptor 5
In short: as §1

hT2R9 = hT2R9 (Homo sapiens (Human), UniProt Q9NYW1); assay: hT2R panel inhibition, transient HEK293 G16g44, agonist Ofloxacin 1 mM; type: cell-based; settings: HEK293, compound at 25 μM; receptor activated to EC80 with the corresponding agonist; read-out: screening result against bitter receptor 9
In short: as §1

hT2R3 = hT2R3 (Homo sapiens (Human), UniProt Q9NYW6); assay: hT2R panel inhibition, transient HEK293 G16g44, agonist Chloroquine pH6.5 50 μM; type: cell-based; settings: HEK293, compound at 25 μM; receptor activated to EC80 with the corresponding agonist; read-out: screening result against bitter receptor 3
In short: as §1

hT2R63 = assay: hT2R panel inhibition, transient HEK293 G16g44, agonist Caffeine 1 mM or Andrographolide 100 μM; type: cell-based, human; settings: compound at 25 μM; receptor activated to EC80 with the corresponding agonist
In short: as §1

hT2R44 = assay: hT2R panel inhibition, transient HEK293 G16g44, agonist Denatonium 0.5 μM; type: cell-based, human; settings: compound at 25 μM; receptor activated to EC80 with the corresponding agonist
In short: as §1

hT2R8 = hT2R8 (Homo sapiens (Human), UniProt Q9NYW2); assay: hT2R panel inhibition, transient HEK293 G16g44, agonist Andrographolide 0.5 mM; type: cell-based; settings: HEK293, compound at 25 μM; receptor activated to EC80 with the corresponding agonist; read-out: screening result against bitter receptor 8
Method: Specifically, in order to evaluate the inhibitory selectivity of the Compound C compound, this compound was tested against 22 human T2Rs which were deorphaned by Senomyx. These receptors and the bitter ligands that activate these human T2Rs are reported in earlier patent applications which are incorporated by reference herein. These 22 human T2Rs are hT2R1, 3, 4, 5, 7, 8, 9, 10, 13, 14, 16, 44, 51, 54, 55, 61, 63, 64, 65, 67, 71 and 75. The amino acid and nucleic acid sequences of all of these T2Rs may be found in these earlier patent applications. These human T2Rs were each individually transiently transfected into HEK293 cells that stably express the promiscuous G protein G16g44 and functional assays were effected using these receptors as disclosed in these same patent applications. […] The ligands were used at EC80 concentration levels. The list of bitter ligands utilized and the tested ligand concentrations are contained in Table 5 of this example.

hT2R54 = assay: hT2R panel inhibition, transient HEK293 G16g44, agonist Ranitidine 5 mM; type: cell-based, human; settings: compound at 25 μM; receptor activated to EC80 with the corresponding agonist
In short: as §1

hT2R13 = hT2R13 (Homo sapiens (Human), UniProt Q9NYV9); assay: hT2R panel inhibition, transient HEK293 G16g44, agonist Oxyphenonium 1 mM; type: cell-based; settings: HEK293, compound at 25 μM; receptor activated to EC80 with the corresponding agonist; read-out: screening result against bitter receptor 13
In short: as §1

hT2R7 = hT2R7 (Homo sapiens (Human), UniProt Q9NYW3); assay: hT2R panel inhibition, transient HEK293 G16g44, agonist Chloroquine pH6.5 10 mM; type: cell-based; settings: HEK293, compound at 25 μM; receptor activated to EC80 with the corresponding agonist; read-out: screening result against bitter receptor 7
In short: as §1

hT2R61 = hT2R61 (Homo sapiens (Human), UniProt P59537); assay: hT2R panel inhibition, transient HEK293 G16g44, agonist Aristolochic Acid 25 nM; type: cell-based; settings: HEK293, compound at 25 μM; receptor activated to EC80 with the corresponding agonist; read-out: screening result against bitter receptor 61
In short: as §1

hT2R75 = hT2R75 (Homo sapiens (Human), UniProt P59540); assay: hT2R panel inhibition, transient HEK293 G16g44, agonist Strychnine 1 μM; type: cell-based; settings: HEK293, read-out: screening result against bitter receptor 75, compound at 25 μM; receptor activated to EC80 with the corresponding agonist
hT2R16 = hT2R16 (Homo sapiens (Human), UniProt Q9NYV7); assay: hT2R panel inhibition, transient HEK293 G16g44, agonist Salicin 1 mM; type: cell-based; settings: HEK293, compound at 25 μM; receptor activated to EC80 with the corresponding agonist; read-out: screening result against bitter receptor 16
In short: as §1

hT2R14 [1] = target: T1, hT2R14 (Homo sapiens (Human), UniProt Q9NYV8); assay: hT2R14 antagonist high-throughput FLIPR assay, stable cell line with G16g44, agonist aristolochic acid; type: cell-based; settings: read-out: IC50 on hT2R14 bitter receptor
In short: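 HEK293 cells stably expressing hT2R14 with chimeric G16g44 were stimulated with aristolochic acid (3 μM), giving 70-80% of maximal receptor activity. Test compounds were added together with the agonist, and antagonism was read as fluorescent calcium signal on FLIPR.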

hT2R4 = hT2R4 (Homo sapiens (Human), UniProt Q9NYW5); assay: hT2R panel inhibition, transient HEK293 G16g44, agonist Chloroquine pH6.5 5 mM; type: cell-based; settings: HEK293, compound at 25 μM; receptor activated to EC80 with the corresponding agonist; class symbols; read-out: screening result against bitter receptor 4
In short: as §1

hT2R14 [2] = target: T1, hT2R14; assay: hT2R panel inhibition, transient HEK293 G16g44, agonist Aristolochic Acid 2 μM; type: cell-based; settings: HEK293, compound at 25 μM; receptor activated to EC80 with the corresponding agonist; read-out: screening result against bitter receptor 14
In short: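 Each hT2R was transiently transfected into HEK293 cells stably expressing G16g44 and assayed functionally for inhibition of agonist response. Agonists were applied at EC80: andrographolide at 0.5 mM for hT2R8 and aristolochic acid at 2 μM for hT2R14.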

hT2R51 = hT2R51 (Homo sapiens (Human), UniProt P59533); assay: hT2R panel inhibition, transient HEK293 G16g44, agonist Prop 2.5 μM; type: cell-based; settings: HEK293, compound at 25 μM; receptor activated to EC80 with the corresponding agonist; read-out: screening result against bitter receptor 51
In short: as §1

hT2R8, sequence (Q9NYW2 whole entry): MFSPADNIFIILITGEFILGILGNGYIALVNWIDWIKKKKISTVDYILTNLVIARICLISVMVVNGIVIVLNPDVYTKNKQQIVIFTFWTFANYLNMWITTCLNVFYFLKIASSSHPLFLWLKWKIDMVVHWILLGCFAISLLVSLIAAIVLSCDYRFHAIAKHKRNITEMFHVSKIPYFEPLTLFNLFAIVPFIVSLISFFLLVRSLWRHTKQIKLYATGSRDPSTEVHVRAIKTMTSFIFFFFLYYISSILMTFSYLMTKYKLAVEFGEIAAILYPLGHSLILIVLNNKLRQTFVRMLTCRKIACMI
hT2R9, sequence (Q9NYW1 whole entry): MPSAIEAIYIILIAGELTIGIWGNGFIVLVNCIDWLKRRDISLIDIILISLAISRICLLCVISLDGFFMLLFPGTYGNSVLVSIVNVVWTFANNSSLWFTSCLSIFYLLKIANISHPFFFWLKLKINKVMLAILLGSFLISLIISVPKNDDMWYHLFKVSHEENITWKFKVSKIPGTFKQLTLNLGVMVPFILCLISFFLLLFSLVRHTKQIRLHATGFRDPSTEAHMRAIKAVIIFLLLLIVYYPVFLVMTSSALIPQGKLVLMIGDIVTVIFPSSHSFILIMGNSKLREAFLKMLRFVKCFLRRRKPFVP
hT2R5, sequence (Q9NYW4 whole entry): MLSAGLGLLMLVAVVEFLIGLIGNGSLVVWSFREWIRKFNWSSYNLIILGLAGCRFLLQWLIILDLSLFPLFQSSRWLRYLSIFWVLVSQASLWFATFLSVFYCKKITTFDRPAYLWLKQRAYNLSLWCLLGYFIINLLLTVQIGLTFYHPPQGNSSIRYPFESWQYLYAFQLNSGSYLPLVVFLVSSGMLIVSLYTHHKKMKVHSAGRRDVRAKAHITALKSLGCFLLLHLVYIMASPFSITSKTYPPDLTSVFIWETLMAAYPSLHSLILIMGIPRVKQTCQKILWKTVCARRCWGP
hT2R3, sequence (Q9NYW6 whole entry): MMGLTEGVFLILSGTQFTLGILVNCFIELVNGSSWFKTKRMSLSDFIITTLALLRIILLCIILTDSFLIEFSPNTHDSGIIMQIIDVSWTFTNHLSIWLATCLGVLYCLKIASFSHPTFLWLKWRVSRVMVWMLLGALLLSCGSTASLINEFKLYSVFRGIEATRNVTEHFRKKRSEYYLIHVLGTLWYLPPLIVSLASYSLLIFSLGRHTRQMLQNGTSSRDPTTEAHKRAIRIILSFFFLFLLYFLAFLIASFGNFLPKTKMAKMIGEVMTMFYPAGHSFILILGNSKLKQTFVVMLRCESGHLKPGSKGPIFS
T1 sequence (Q9NYV8 whole entry): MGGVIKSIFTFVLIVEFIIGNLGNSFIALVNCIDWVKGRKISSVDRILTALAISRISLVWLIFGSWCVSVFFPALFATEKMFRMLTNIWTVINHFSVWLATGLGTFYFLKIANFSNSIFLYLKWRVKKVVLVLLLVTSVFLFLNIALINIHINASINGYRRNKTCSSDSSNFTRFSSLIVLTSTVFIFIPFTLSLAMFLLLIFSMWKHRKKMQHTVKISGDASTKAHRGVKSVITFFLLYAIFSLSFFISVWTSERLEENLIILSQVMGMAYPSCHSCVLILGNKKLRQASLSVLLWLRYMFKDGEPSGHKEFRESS
hT2R4, sequence (Q9NYW5 whole entry): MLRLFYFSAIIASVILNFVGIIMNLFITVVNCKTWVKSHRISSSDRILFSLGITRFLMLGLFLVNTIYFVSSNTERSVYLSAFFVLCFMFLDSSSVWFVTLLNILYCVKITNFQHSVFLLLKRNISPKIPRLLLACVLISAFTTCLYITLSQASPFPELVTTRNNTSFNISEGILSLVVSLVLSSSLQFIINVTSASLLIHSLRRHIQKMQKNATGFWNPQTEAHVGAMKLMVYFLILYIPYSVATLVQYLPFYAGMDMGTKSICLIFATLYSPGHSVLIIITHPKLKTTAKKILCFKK
hT2R64, sequence (P59538 whole entry): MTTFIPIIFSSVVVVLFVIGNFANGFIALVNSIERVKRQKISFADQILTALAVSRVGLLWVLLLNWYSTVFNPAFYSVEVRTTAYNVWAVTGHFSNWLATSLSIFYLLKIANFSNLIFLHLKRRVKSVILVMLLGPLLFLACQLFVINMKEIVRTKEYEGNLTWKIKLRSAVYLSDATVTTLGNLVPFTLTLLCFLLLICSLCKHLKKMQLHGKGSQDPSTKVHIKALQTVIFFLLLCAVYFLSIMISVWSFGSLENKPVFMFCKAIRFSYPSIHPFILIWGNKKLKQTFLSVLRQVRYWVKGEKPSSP
hT2R61, sequence (P59537 whole entry): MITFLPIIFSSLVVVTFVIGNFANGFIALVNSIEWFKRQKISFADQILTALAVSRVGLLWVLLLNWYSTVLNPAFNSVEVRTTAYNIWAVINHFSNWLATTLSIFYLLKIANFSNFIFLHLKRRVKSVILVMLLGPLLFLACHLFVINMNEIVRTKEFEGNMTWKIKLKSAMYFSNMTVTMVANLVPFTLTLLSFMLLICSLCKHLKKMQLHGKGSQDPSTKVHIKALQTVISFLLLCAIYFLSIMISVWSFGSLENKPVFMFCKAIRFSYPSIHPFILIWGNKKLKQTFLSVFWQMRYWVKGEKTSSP
hT2R16, sequence (Q9NYV7 whole entry): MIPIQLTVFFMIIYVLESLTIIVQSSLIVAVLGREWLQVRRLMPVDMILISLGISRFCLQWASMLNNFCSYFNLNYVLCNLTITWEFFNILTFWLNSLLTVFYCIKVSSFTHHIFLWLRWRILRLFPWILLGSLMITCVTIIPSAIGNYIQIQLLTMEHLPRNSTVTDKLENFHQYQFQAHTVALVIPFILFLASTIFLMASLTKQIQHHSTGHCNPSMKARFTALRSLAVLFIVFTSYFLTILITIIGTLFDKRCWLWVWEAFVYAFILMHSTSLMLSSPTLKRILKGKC
hT2R7, sequence (Q9NYW3 whole entry): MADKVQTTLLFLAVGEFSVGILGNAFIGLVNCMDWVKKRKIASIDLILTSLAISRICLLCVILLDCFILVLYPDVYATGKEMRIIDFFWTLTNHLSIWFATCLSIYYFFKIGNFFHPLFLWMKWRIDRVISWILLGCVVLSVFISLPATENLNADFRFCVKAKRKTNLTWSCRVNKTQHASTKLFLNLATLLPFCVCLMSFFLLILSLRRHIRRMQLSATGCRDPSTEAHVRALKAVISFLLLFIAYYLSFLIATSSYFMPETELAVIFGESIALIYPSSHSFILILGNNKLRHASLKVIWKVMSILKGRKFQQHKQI
hT2R51, sequence (P59533 whole entry): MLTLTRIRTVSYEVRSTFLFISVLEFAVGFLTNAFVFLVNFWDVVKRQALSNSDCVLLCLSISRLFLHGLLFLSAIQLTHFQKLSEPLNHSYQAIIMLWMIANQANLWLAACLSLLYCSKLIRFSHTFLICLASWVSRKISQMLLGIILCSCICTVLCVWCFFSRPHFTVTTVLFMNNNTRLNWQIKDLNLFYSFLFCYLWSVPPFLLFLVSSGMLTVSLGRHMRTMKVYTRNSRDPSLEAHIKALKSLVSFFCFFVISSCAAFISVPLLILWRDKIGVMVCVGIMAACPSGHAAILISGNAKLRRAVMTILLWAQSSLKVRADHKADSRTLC
hT2R13, sequence (Q9NYV9 whole entry): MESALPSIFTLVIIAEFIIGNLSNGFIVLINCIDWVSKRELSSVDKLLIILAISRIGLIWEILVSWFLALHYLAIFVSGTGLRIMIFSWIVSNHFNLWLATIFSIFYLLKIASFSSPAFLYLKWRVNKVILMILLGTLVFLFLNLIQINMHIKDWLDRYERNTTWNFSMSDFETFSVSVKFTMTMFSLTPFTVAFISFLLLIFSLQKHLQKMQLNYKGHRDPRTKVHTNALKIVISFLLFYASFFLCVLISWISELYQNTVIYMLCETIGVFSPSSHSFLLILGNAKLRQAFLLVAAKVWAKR
hT2R75, sequence (P59540 whole entry): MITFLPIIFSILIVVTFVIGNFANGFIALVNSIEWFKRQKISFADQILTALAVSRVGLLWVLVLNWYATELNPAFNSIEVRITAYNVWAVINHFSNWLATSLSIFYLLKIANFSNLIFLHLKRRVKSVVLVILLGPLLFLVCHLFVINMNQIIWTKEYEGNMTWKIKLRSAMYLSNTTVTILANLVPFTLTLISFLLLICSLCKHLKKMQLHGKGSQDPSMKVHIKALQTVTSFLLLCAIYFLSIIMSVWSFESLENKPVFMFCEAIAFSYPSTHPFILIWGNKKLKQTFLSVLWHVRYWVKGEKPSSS

Structure (SMILES) | inhibition at 25 µM (hT2R64) [%] | inhibition at 25 µM (hT2R5) [%] | inhibition at 25 µM (hT2R9) [%] | inhibition at 25 µM (hT2R3) [%] | screening result against bitter receptor 63 (hT2R63) | screening result against bitter receptor 44 (hT2R44) | inhibition at 25 µM (hT2R8) [%] | screening result against bitter receptor 54 (hT2R54) | inhibition at 25 µM (hT2R13) [%] | inhibition at 25 µM (hT2R7) [%] | melting point [°C] | inhibition at 25 µM (hT2R61) [%] | inhibition at 25 µM (hT2R75) [%] | inhibition at 25 µM (hT2R16) [%] | IC50 (hT2R14 [1]) [µM] | inhibition at 25 µM (hT2R4) [%] | inhibition at 25 µM (hT2R14 [2]) [%] | inhibition at 25 µM (hT2R51) [%]
COc1ccc(CN(Cc2ccccc2C)S(=O)(=O)c2ccc(C(=O)O)cc2)cc1 [Example 5-64, 4-(N-(4-methoxybenzyl)-N-(2-methylbenzyl)sulfamoyl)benzoic acid] | 20 to 40 | 20 to 40 | 20 to 40 | 20 to 40 | + (20% to 40% inhibition = +) | + (20% to 40% inhibition = +) | 20 to 40 | + (20% to 40% inhibition = +) | – | – | – | – | – | – | – | – | – | –
COc1ccc(CN(Cc2ccc(C)cc2)S(=O)(=O)c2ccc(C(=O)O)cc2)cc1 [Example 5-66, 4-(N-(4-methoxybenzyl)-N-(4-methylbenzyl)sulfamoyl)benzoic acid] | – | – | 20 to 40 | 20 to 40 | – | + (20% to 40% inhibition = +) | 20 to 40 | – | – | – | – | – | – | – | – | – | – | –
COc1ccc(CN(Cc2ccccc2)S(=O)(=O)c2ccc(C(=O)O)cc2)cc1 [Example 5-1, 4-(N-benzyl-N-(4-methoxybenzyl)sulfamoyl)benzoic acid] | – | 20 to 40 | 20 to 40 | – | – | – | 20 to 40 | – | 20 to 40 | 40 to 60 | 161 to 163 | > 80 | 20 to 40 | 40 to 60 | 0.22 | 20 to 40 | > 80 | 60 to 80
